From patent publication US7205307B2, “Pyrimidines as novel openers of potassium ion channels” (Icagen, Inc., priority 2002, dated 2007)

system: voltage gated K+ channels; assay: test assay chosen for cells expressing voltage gated K+ channels (opening of voltage-gated potassium channels); type: cell-based; conditions: relative potency
Experimental: Utilizing screening assays such as described above, compounds of the invention were tested for their ability to open voltage-gated potassium channels. The results of these assays are set forth in Table 1 in which the data are presented in terms of relative potency of the compounds tested to one another.
This example illustrates screening protocols for evaluating putative potassium channel agonists for the ability to open voltage-gated potassium channels.
NG108-15 cells, a mouse neuroblastoma, rat glioma hybrid cell line, functionally express M-currents (Robbins et al., J. Physiol. 451: 159–85 (1992). NG108-15 M-currents are likely comprised, at least in part, of KCNQ2, KCNQ3 and KCNQ5, since these genes are reportedly robustly expressed in differentiated NG108-15 cells (Selyanko et al., J. Neurosci. 19(18): 7742–56 (1999); Schroeder et al., J. Biol. Chem. 275(31): 24089–95 (2000)) and KCNQ3 dominant- negative constructs reduce M-current density in these cells (Selyanko et al., J. Neurosci. 22(5): RC212 (2002).
NG108–15 are maintained in DMEM (high glucose) supplemented with 10% fetal bovine serum, 0.05 mM pyridoxine, 0.1 mM hypoxanthine, 400 nM aminopterin, […] thymidine, 50 μgml^−1 gentamycin and 10 mM HEPES, in an incubator at 37° C. with a humidified atmosphere of 5% CO2. Cells are plated in 96 well plates and are differentiated by addition of 10 μM PGE1 and 50 μM isomethylbutylxanthine to the growth media prior to study.
Differentiated NG108–15 cells are loaded with voltage-sensitive dye by incubation in Earls Balanced Salt Solution (EBSS) containing […] DiBAC for 1 h. Following loading, drug solution containing […] DiBAC is added to each well. Changes in fluorescence are measured every 30 s for 25 min. The maximum change in fluorescence is measured and can be expressed as a percentage of the maximum response obtained in the presence of a positive control agent.
Alternatively, cells expressing voltage-gated K^+ channels, such as KCNQ2-like channels can be loaded with ^86Rb^+ by culture in media containing ^86RbCl. Following loading, culture media is removed and the cells are washed in EBSS to remove residual traces of ^86Rb^+. Cells are preincubated with drug (0.01–30 μM in EBSS) and then ^86Rb^+ efflux is stimulated by exposing cells to EBSS solution supplemented with a sub-maximal concentration of KCl (generally 7–20 mM) in the continued presence of drug. After a suitable efflux period, the EBSS/KCl solution is removed from the cells and the ^86Rb^+ content can be determined by Cherenkov counting (Wallac Trilux). Cells are then lysed with a SDS solution and the ^86Rb^+ content of the lysate can be determined. Percent ^86Rb^+ efflux is calculated according to: (^86Rb^+ content in EBSS/(^86Rb^+ content in EBSS+^86Rb^+ content of the lysate))*100
Efflux is normalized to the maximal ^86Rb^+ efflux (i.e., that which can be induced by a high concentration of KCl, generally 30–135 mM).

SMILES | EC50 [nM]
O=C(Nc1cnc(Cl)nc1)c1cccc(C(F)(F)F)c1 [Compound 3, N-(2-chloro-pyrimidin-5-yl)-3-trifluoromethyl-benzamide] | 1000 to 10000
O=C(Nc1cnc(Cl)nc1)c1ccc(F)c(F)c1 [Compound 4, N-(2-Chloro-pyrimidin-5-yl)-3,4-difluoro-benzamide] | 500 to 1000
O=C(Nc1cnc(Cl)nc1)c1cccc(Cl)c1 [Compound 5, 3-Chloro-N-(2-chloro-pyrimidin-5-yl)-benzamide] | 1000 to 10000
Cc1ncc(NC(=O)c2ccc(F)c(F)c2)cn1 [Compound 8, 3,4-difluoro-N-(2-methyl-pyrimidin-5-yl)-benzamide] | 1000 to 10000
O=C(Nc1cnc(Cl)nc1)c1cccc(F)c1 [Compound 9, N-(2-chloro-pyrimidin-5-yl)-3-fluoro-benzamide] | 1000 to 10000
O=C(Nc1cnc(Cl)nc1)c1ccc(Cl)s1 [Compound 20, 5-Chloro-thiophene-2-carboxylic acid (2-chloro-pyrimidin-5-yl)-amide] | 500 to 1000
O=C(Nc1cnc(Cl)nc1)c1ccc(Cl)c(F)c1 [Compound 44, 4-Chloro-N-(2-chloro-pyrimidin-5-yl)-3-fluoro-benzamide] | < 500
Cc1ccc(C(=O)Nc2cnc(Cl)nc2)cc1F [Compound 90, N-(2-Chloro-pyrimidin-5-yl)-3-fluoro-4-methyl-benzamide] | 500 to 1000
CC(C)S(=O)(=O)c1ccc(C(=O)Nc2cnc(Cl)nc2)cc1F [Compound 91, N-(5-amino-2-chloro-pyrimidine)-3-fluoro-4-(propane-2-sulfonyl)-benzamide] | 1000 to 10000
